Each structure is given as a SMILES string.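 Five concentrations, 48 hours, 96-well plates. GI50: concentration for 50% inhibition of growth.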 The source made the active and inactive calls. No stated cut-off is given here; in the data, active = GI50 up to about 1.1 µM and inactive = higher. Where only a bound is given, the exact number is not on record here.

Some test systems named below: Malme-3M; OVCAR-8; HCT-15; CCRF-CEM; SNB-19; HCC 2998; HT-29; RPMI-8226; NCI-H226; IGROV-1; TK-10; MOLT-4; OVCAR-3; SN12C; U-251; K562; LOX IMVI.
Common to all, as to experiment: inhibition of tumour cell growth, NCI panel, 48 h

With `COc1ccc2c(c1)CC1c3c(cc4c(c3-2)OCO4)CCN1C` (configuration not stated), the GI50 with Malme-3M is 28 µM (inactive); with OVCAR-8, 21.6 µM (inactive); in the experiment with HCT-15, 36.9 µM; in the experiment with CCRF-CEM it was 23 µM (inactive); in the experiment on SNB-19, 42 µM (inactive); in the experiment with HCC 2998 it was 41.1 µM (inactive). The GI50 with HT-29 is 27.7 µM (inactive); with RPMI-8226 it was 24.8 µM (inactive); in the experiment with NCI-H226, 24.6 µM (inactive); with IGROV-1 it was 31.7 µM (inactive); in the experiment with TK-10, 21.1 µM (inactive); in the experiment with MOLT-4, 20 µM (inactive). Besides, the GI50 in the experiment on OVCAR-3 was 32.5 µM (inactive); with SN12C it was 33.3 µM (inactive); in the experiment on U-251, 31.6 µM (inactive); in the experiment on K562, 23.3 µM (inactive).
For the molecule `Nc1ccc(C(=O)NN2C(=O)C(Cl)C2c2ccccc2O)cc1` (configuration not stated), the GI50 in the experiment with Malme-3M is > 100 µM (inactive); in the experiment with OVCAR-8 it was 42.3 µM (inactive); in the experiment on HCT-15 it was 35.2 µM; with CCRF-CEM it was 6.01 µM (inactive); with SNB-19, > 100 µM (inactive); with LOX IMVI it was 18.8 µM (inactive). For the same molecule, the GI50 in the experiment with HCC 2998 is 18.7 µM (inactive); with HT-29 it was > 100 µM (inactive); in the experiment on RPMI-8226, 44.5 µM (inactive); in the experiment with NCI-H226 it was 69.2 µM (inactive); in the experiment on IGROV-1, > 100 µM (inactive); with TK-10, > 100 µM (inactive). Besides, the GI50 in the experiment on MOLT-4 is 22.5 µM (inactive); in the experiment with OVCAR-3 it was 31.7 µM (inactive); in the experiment on SN12C, > 100 µM (inactive); with U-251 it was 36 µM (inactive); in the experiment with K562, 75 µM (inactive).
In the case of `CCOc1ccc(/N=N/c2ccc3oc(=O)c(C(=O)Nc4ccc(OC)cc4)cc3c2)cc1`, the GI50 was 30.1 µM (inactive) in the experiment with Malme-3M; 12.7 µM (inactive) in the experiment with OVCAR-8; 6.12 µM in the experiment with HCT-15; 2.36 µM (inactive) with CCRF-CEM; 14 µM (inactive) in the experiment on SNB-19; 11.4 µM (inactive) in the experiment on LOX IMVI. For the same molecule, the GI50 with HCC 2998 was 10.8 µM (inactive); with HT-29 it was 42.5 µM (inactive); in the experiment on RPMI-8226 it was 11.1 µM (inactive); with IGROV-1 it was 23.5 µM (inactive); in the experiment with TK-10, 17.1 µM (inactive); in the experiment on MOLT-4, 4.07 µM (inactive). Moreover, the GI50 is 19.5 µM (inactive) in the experiment on OVCAR-3, 18 µM (inactive) in the experiment on SN12C, 14.1 µM (inactive) with U-251 and 8.38 µM (inactive) in the experiment on K562.
For the molecule `O=C1O[C@H](C(Cl)(Cl)Cl)N2CCCC12` (some centres not stated), the GI50 was > 100 µM (inactive) with Malme-3M; > 100 µM (inactive) with OVCAR-8; above 100 µM in the experiment on HCT-15; > 100 µM (inactive) with CCRF-CEM; > 100 µM (inactive) in the experiment with SNB-19; > 100 µM (inactive) in the experiment with LOX IMVI. For the same molecule, the GI50 with HT-29, in the experiment on RPMI-8226, in the experiment with NCI-H226, with IGROV-1, with TK-10 and with MOLT-4 was > 100 µM (inactive) throughout. The GI50 in the experiment on OVCAR-3, in the experiment with SN12C, in the experiment with U-251 and with K562 was > 100 µM (inactive) throughout.
As to `O=C(O)CSc1nnc(-c2ccccc2)[nH]1`, the GI50 in the experiment on Malme-3M is > 100 µM (inactive); with OVCAR-8 it was > 100 µM (inactive); with HCT-15, above 100 µM; in the experiment on CCRF-CEM it was > 100 µM (inactive); in the experiment on SNB-19 it was > 100 µM (inactive); in the experiment with LOX IMVI, > 100 µM (inactive). For the same molecule, the GI50 with HCC 2998, in the experiment with HT-29, with RPMI-8226, in the experiment with NCI-H226, in the experiment with IGROV-1 and with TK-10 was > 100 µM (inactive) in each case. The GI50 with MOLT-4, in the experiment with OVCAR-3, in the experiment with SN12C, in the experiment with U-251 and with K562 was > 100 µM (inactive) throughout.
In the case of `COc1ccc(C=O)cc1O[Si](C)(C)C(C)(C)C`, the GI50 was > 100 µM (inactive) in the experiment with Malme-3M; > 100 µM (inactive) with OVCAR-8; above 100 µM in the experiment with HCT-15; > 100 µM (inactive) with CCRF-CEM; > 100 µM (inactive) in the experiment with SNB-19; > 100 µM (inactive) with LOX IMVI. Further, the GI50 in the experiment with HCC 2998, with HT-29, in the experiment on RPMI-8226, in the experiment on IGROV-1, in the experiment on TK-10 and in the experiment on MOLT-4 was > 100 µM (inactive) throughout. Moreover, the GI50 in the experiment with OVCAR-3, with SN12C, with U-251 and with K562 was > 100 µM (inactive) each time.
`Cc1cc(NS(=O)(=O)c2ccc(NC(=O)c3ccc(Cl)c4c(Nc5ccc(S(=O)(=O)Nc6cc(C)on6)cc5)c5ccccc5nc34)cc2)no1`: the GI50 in the experiment on Malme-3M was 16.2 µM (inactive); in the experiment on OVCAR-8, 46 µM (inactive); in the experiment on HCT-15, 18.7 µM; in the experiment with CCRF-CEM, 18.8 µM (inactive); in the experiment on SNB-19, 14.4 µM (inactive); in the experiment with LOX IMVI, 18.5 µM (inactive). Also, the GI50 with HT-29 was 19.8 µM (inactive); with RPMI-8226, 27.5 µM (inactive); in the experiment with IGROV-1 it was 21.5 µM (inactive); in the experiment on TK-10, 31.3 µM (inactive); with MOLT-4, 29 µM (inactive); in the experiment on OVCAR-3, 16.6 µM (inactive). Besides, the GI50 in the experiment on SN12C is 18.6 µM (inactive); with U-251 it was 16.2 µM (inactive); in the experiment with K562 it was 23.2 µM (inactive).
Turning to `CC(C)(C)OC(=O)Cc1ccc2c(ccn2Cc2ccccc2)c1`, the GI50 in the experiment on Malme-3M was > 100 µM (inactive); in the experiment with OVCAR-8, 60.3 µM (inactive); with HCT-15 it was 12.8 µM; in the experiment on CCRF-CEM, > 100 µM (inactive); in the experiment with SNB-19, > 100 µM (inactive); in the experiment with LOX IMVI, 47.4 µM (inactive). Further, the GI50 in the experiment with HCC 2998 is > 100 µM (inactive); in the experiment with HT-29 it was 17.2 µM (inactive); in the experiment on NCI-H226, 35.7 µM (inactive); in the experiment on IGROV-1, > 100 µM (inactive); in the experiment on TK-10, 79.6 µM (inactive); in the experiment with MOLT-4, 18 µM (inactive). The GI50 was 56.2 µM (inactive) with OVCAR-3, 52.1 µM (inactive) in the experiment with SN12C, 19.8 µM (inactive) in the experiment on U-251 and > 100 µM (inactive) in the experiment with K562.
As to `O=C(/C=C/c1ccccc1)c1ccc(Cl)cc1Cl`, the GI50 was 25.1 µM (inactive) in the experiment with Malme-3M; 15.1 µM (inactive) in the experiment on OVCAR-8; 13.1 µM with HCT-15; 7.24 µM (inactive) with CCRF-CEM; 27.5 µM (inactive) with SNB-19; 23.3 µM (inactive) in the experiment with HCC 2998. The GI50 in the experiment with HT-29 is 16.8 µM (inactive); in the experiment on RPMI-8226 it was 3.76 µM (inactive); in the experiment with NCI-H226 it was 29.9 µM (inactive); with IGROV-1, 18.5 µM (inactive); in the experiment on TK-10, 31.8 µM (inactive); with MOLT-4 it was 18.1 µM (inactive). In addition, the GI50 in the experiment with OVCAR-3 was 20 µM (inactive); in the experiment on SN12C, 23.1 µM (inactive); with U-251 it was 19.6 µM (inactive); with K562 it was 10 µM (inactive).
Consider `CN(C(=O)C1CC1)C1C2CN3CCC(O2)C13` (configuration not stated), for which the GI50 is > 100 µM (inactive) in the experiment on Malme-3M; above 100 µM in the experiment on HCT-15; > 100 µM (inactive) in the experiment on CCRF-CEM; > 100 µM (inactive) in the experiment with SNB-19; > 100 µM (inactive) in the experiment with LOX IMVI; > 100 µM (inactive) with HCC 2998. Further, the GI50 in the experiment on HT-29, with RPMI-8226, in the experiment on NCI-H226, with IGROV-1, with TK-10 and in the experiment on MOLT-4 was > 100 µM (inactive) each time. For the same molecule, the GI50 with OVCAR-3, in the experiment with SN12C, in the experiment with U-251 and with K562 was > 100 µM (inactive) each time.
For the molecule `O=S(=O)(O)c1ccc(-c2c3nc(c(-c4ccc(S(=O)(=O)O)cc4)c4ccc([nH]4)c(-c4ccc(S(=O)(=O)O)cc4)c4nc(c(-c5ccc(S(=O)(=O)O)cc5)c5ccc2[nH]5)C=C4)C=C3)cc1`, the GI50 in the experiment on Malme-3M is > 100 µM (inactive); in the experiment on OVCAR-8 it was > 100 µM (inactive); with HCT-15, above 100 µM; in the experiment on CCRF-CEM it was > 100 µM (inactive); with SNB-19, > 100 µM (inactive); with LOX IMVI it was > 100 µM (inactive). For the same molecule, the GI50 in the experiment on HCC 2998, in the experiment on HT-29, with RPMI-8226, in the experiment with IGROV-1, with TK-10 and with MOLT-4 was > 100 µM (inactive) each time. In addition, the GI50 with OVCAR-3, with SN12C, with U-251 and in the experiment on K562 was > 100 µM (inactive) each time.
On to `Cn1c2c(c3ccccc31)CCN(CCCCN1CCN(c3cccc(Cl)c3)CC1)C2=O`, for which the GI50 is > 10 µM (inactive) in the experiment with Malme-3M; 17.8 µM (inactive) in the experiment on OVCAR-8; 11.6 µM with HCT-15; 9.86 µM (inactive) with CCRF-CEM; 17.7 µM (inactive) with SNB-19; 2.79 µM (inactive) with HT-29. Also, the GI50 was 5.66 µM (inactive) with RPMI-8226; 15.9 µM (inactive) with IGROV-1; 11.5 µM (inactive) in the experiment with TK-10; 7.62 µM (inactive) in the experiment on MOLT-4; 15.5 µM (inactive) with OVCAR-3; 12.8 µM (inactive) with SN12C. The GI50 with U-251 was 11.6 µM (inactive); with K562, 4.45 µM (inactive).
Consider `CCc1cccc(C)c1NC(=O)CC1Sc2ccccc2NC1=O` (configuration not stated), for which the GI50 with Malme-3M is 27.3 µM (inactive); in the experiment on OVCAR-8 it was 65.5 µM (inactive); in the experiment on HCT-15, 39.3 µM; with CCRF-CEM, 25.2 µM (inactive); in the experiment on SNB-19 it was 57.4 µM (inactive); with LOX IMVI, 48.8 µM (inactive). In addition, the GI50 in the experiment on HCC 2998 is 22.4 µM (inactive); in the experiment with RPMI-8226 it was 24.4 µM (inactive); in the experiment with NCI-H226, 16 µM (inactive); in the experiment with IGROV-1, 88.7 µM (inactive); in the experiment on TK-10, 93.1 µM (inactive); in the experiment on MOLT-4, 29.2 µM (inactive). In addition, the GI50 in the experiment on OVCAR-3 was 32.6 µM (inactive); in the experiment on SN12C, > 100 µM (inactive); in the experiment on U-251, 31.5 µM (inactive); in the experiment on K562 it was 23.8 µM (inactive).

The record behind these values is ChEMBL document CHEMBL1201862, “PubChem BioAssay data set” (2004).
